Here are results for 10 compounds from US20050282793A1, “Steroid prodrugs with androgenic action” (priority 2004, published 2005).

For orientation: IC50 means the concentration that gives 50% inhibition.

One series has as its system erythrocytes. Description: Binding to erythrocytes: displacement of estradiol-3-sulfamate from the erythrocyte bond (RBA). Also noted: species or system human. The note with it: for RBA in Erythrocytes: human blood, displacement of 14C-labeled estradiol sulfamate, estradiol-3-sulfamate = 100. Here is the method: The SO2—NH2 group of the compounds according to the invention can result in a concentration in erythrocytes by binding to carboanhydrases. The displacement of estradiol-3-sulfamate from the erythrocyte bond by test substances is measured. Test preparation: human blood is mixed with a mixture that consists of ^14C-labeled and unlabeled estradiol sulfamate. The erythrocytes are saturated at the selected working point. The distribution in plasma/erythrocytes is 40:60. A second blood sample is mixed with a mixture that consists of ^14C-labeled estradiol sulfamate and unlabeled test substance. The relative binding affinity is calculated from the proportion of ^14C-labeled estradiol sulfamate in plasma: higher proportion=strong displacement of ^14C-estradiol sulfamate from the erythrocytes by the test substance=high binding affinity of the test substances to the erythrocytes.
For orientation: In a radioligand displacement assay an active substance lowers the binding of a labelled ligand.

Another series deals with Human Carboanhydrase I (Homo sapiens, UniProt P00915). Description: Carboanhydrase I inhibition (CO2 hydration). Format: biochemical. Here is the method: Carboanhydrases catalyze the CO2 hydration.
Human Carboanhydrase I, sequence (P00915 whole entry): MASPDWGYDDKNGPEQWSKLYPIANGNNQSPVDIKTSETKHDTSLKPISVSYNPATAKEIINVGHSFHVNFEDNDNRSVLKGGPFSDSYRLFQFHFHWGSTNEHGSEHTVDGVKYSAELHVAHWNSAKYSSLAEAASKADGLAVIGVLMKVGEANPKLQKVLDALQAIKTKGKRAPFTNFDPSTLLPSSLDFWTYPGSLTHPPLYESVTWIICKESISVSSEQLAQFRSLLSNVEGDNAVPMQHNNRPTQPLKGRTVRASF
Test preparation: A constant CO2 stream is directed by a buffer that was mixed with carboanhydrase I. The time that is required to reduce the pH within defined limits is a measuring parameter. This parameter reflects the formation of H2CO3 in the medium. IC50 inhibiting values are determined by test substances being pipetted into the test preparation.

A short description of series [1]: Determination of the erythrocyte/plasma distribution ratio. The note with it: freshly obtained, heparinized blood. Format: in vitro ADME. Here is the method: Freshly obtained, heparinized blood is mixed with a defined amount of test substance. The concentration in the plasma obtained therefrom is measured. The erythrocyte/plasma distribution ratio is calculated from the measured concentration of the entire substance in plasma and the concentration that is used.

The test system of series [2] is gonadally intact, adult, sexually mature rats. The series can be described thus: Test (III), oral treatment over 6 weeks. Format: in vivo, rat. Here is the method:
(§1) • Method: Adult male rats, of about 300 g of body weight, are castrated and treated orally over 7 days with MENT and compound 12 according to the invention. On the 8th day of the test, the animals are sacrificed, and the hormonal effects of the test substances are evaluated (growth of the accessory sex glands, reduction of the gonadotropic hormones in plasma, parameters of hepatic actions: effects on HDL lipoproteins, determination of MENT in the plasma). Test (III) on Gonadally Intact Adult Sexually Mature Rats Over 6 Weeks
• Method: Adult male rats of above 300 g of body weight are treated orally over 6 weeks with MENT and compounds 12 or 5 according to the invention. At the end of the test, the animals are sacrificed, and the hormonal effects of the test substances are evaluated (weight of the testes and the accessory sex glands, reduction of the gonadotropic hormones and testosterone in the plasma during the course of the test, parameters of hepatic actions: effects on HDL lipoproteins).

Series [3] deals with accessory sex glands (prostate). Description: Hershberger Test (comparison of m- and p-substituted compound; test not specified). The series is classed as in vivo, rat. The note with it: m-substituted compound 12 compared to p-substituted compound 11.
The subject of series [4] is sexually immature, castrated male rats. The series can be described thus: Test (I), oral treatment over 7 days, evaluation on day 8. The series is classed as in vivo, rat. Here is the method: Test (I) on Sexually Immature, Castrated Male Rats Over 8 Days
Method: Male rats weighing about 45 g of body weight are castrated and treated orally over 7 days with MENT and with compounds 12 or 18 according to the invention. On the 8th day of the test, the animals are sacrificed, and the hormonal effects of the test substances are evaluated (growth of the accessory sex glands, reduction of gonadotropic hormones in plasma, parameters of hepatic actions: effects on HDL lipoproteins).

Series [5] relates to sexually mature, castrated male rats. Description: Test (II), oral treatment over 7 days, evaluation on day 8. Format: in vivo, rat. Here is the method:
Test (II) on Sexually Mature, Castrated Male Rats Over 8 Days
as §1

Like-named read-outs stand apart in the source and are kept apart here.

In the case of `C[C@]12CC[C@H]3[C@@H](CCC4=CC(=O)CC[C@@]43C)[C@@H]1CC[C@@H]2OC(=O)c1ccc(S(N)(=O)=O)cc1` [Compound 1, 3-Oxoandrost-4-en-17β-yl 4′-sulfamoyl benzoate], in the series with erythrocytes, the “RBA in Erythrocytes” value is reported as 48. On Human Carboanhydrase I, this compound registered an IC50 of 370 nM. In series [1], the “Distribution Ratio with Erythrocytes/Plasma” value was 9.

`COc1ccc(S(N)(=O)=O)cc1C(=O)O[C@H]1CC[C@H]2[C@@H]3CCC4=CC(=O)CC[C@]4(C)[C@H]3CC[C@]12C` [Compound 4, 3-Oxoandrost-4-en-17β-yl 2′-methoxy-5′-sulfamoyl benzoate]: the “RBA in Erythrocytes” value in the series with erythrocytes is reported as 0.8. For the same compound, in series [1], the “Distribution Ratio with Erythrocytes/Plasma” value came to 2.

As to `C[C@]12CC[C@H]3[C@@H](CCC4=CC(=O)CC[C@@]43C)[C@@H]1CC[C@@H]2OC(=O)c1cccc(S(N)(=O)=O)c1` [Compound 5, 3-Oxoandrost-4-en-17β-yl 3′-sulfamoyl benzoate], in the series on erythrocytes, the “RBA in Erythrocytes” value is 1.3. The same compound had an IC50 against Human Carboanhydrase I of 880 nM. For the same compound, in series [2], the “changes in hepatic parameters” value was “especially small changes in hepatic parameters”. Besides, the “Distribution Ratio with Erythrocytes/Plasma” value in series [1] came to 2.

As for `C[C@]12CC[C@H]3[C@@H](CCC4=CC(=O)CC[C@@H]43)[C@@H]1CC[C@@H]2OC(=O)c1ccc(S(N)(=O)=O)cc1` [Compound 8, 3-Oxoestr-4-en-17β-yl 4′-sulfamoyl benzoate], the “RBA in Erythrocytes” value in the series on erythrocytes amounted to 24. Moreover, in series [1], the “Distribution Ratio with Erythrocytes/Plasma” value turned out to be 7.

Turning to `C[C@@H]1CC2=CC(=O)CC[C@@H]2[C@H]2CC[C@]3(C)[C@@H](OC(=O)c4ccc(S(N)(=O)=O)cc4)CC[C@H]3[C@@H]21` [Compound 11, 3-Oxo-7α-methylestr-4-en-17β-yl 4′-sulfamoyl benzoate], at Human Carboanhydrase I (human carboanhydrase I, read-out: CAI IC50), the IC50 was in the range of 200 to 400 nM.

In the case of `C[C@@H]1CC2=CC(=O)CC[C@@H]2[C@H]2CC[C@]3(C)[C@@H](OC(=O)c4cccc(S(N)(=O)=O)c4)CC[C@H]3[C@@H]21` [Compound 12, 3-Oxo-7α-methylestr-4-en-17β-yl 3′-sulfamoyl benzoate], the “RBA in Erythrocytes” value with erythrocytes was 2.1. Also, in the series on erythrocytes (m-substituted versus 4'-sulfamoyl benzoates), the “bond strength to the erythrocytes (in words)” value was “lower bond strength to the erythrocytes”. This compound also showed an IC50 against Human Carboanhydrase I of 600 nM. In series [3], the “activity in the Hershberger Test” value is given as “higher activity in the Hershberger Test compared to the p-substituted compound 11”. Besides, in series [4], the “growth of the accessory sex glands” value is “strong dose-dependent effects on the growth of the accessory sex glands”. In addition, in series [2], the antigonadotropic effects entry is “Superior antigonadotropic effects”; the “effects on the accessory sex glands (weights of seminal vesicles and prostates)” value is “induced in a dose-dependent way an increase of the weights of the seminal vesicles and prostates beyond the level of intact controls”. Besides, the “Distribution Ratio with Erythrocytes/Plasma” value in series [1] is on record as 3. In addition, the “levels of MENT in the plasma” value in series [5] (after oral administration) is “significantly higher levels of MENT are achieved in the plasma than after the administration of MENT itself”. For the same compound, the “growth of the accessory sex glands” value in series [5] (oral, 7 days) was “unexpectedly strong, dose-dependent effects on the growth of the accessory sex glands”.

Turning to `C[C@]12CC[C@H]3[C@@H](CCC4=CC(=O)CC[C@@]43C)[C@@H]1CC[C@@H]2OC(=O)CCc1ccc(S(N)(=O)=O)cc1` [Compound 14, 3-Oxoandrost-4-en-17β-yl 4′-sulfamoylphenylpropionate], in the series on erythrocytes, the “RBA in Erythrocytes” value is 3.4. In addition, in series [1], the “Distribution Ratio with Erythrocytes/Plasma” value came to 4.

Take `C[C@]12CC[C@H]3[C@@H](CCC4=CC(=O)CC[C@@]43C)[C@@H]1CC[C@@H]2OC(=O)c1cc(S(N)(=O)=O)ccc1O` [Compound 18, 3-Oxoandrost-4-en-17β-yl 2′-hydroxy-5′-sulfamoyl Benzoate]: the “RBA in Erythrocytes” value in the series on erythrocytes is recorded as 1.4. Moreover, the “growth of the accessory sex glands” value in series [4] was “strong dose-dependent effects on the growth of the accessory sex glands”. The “Distribution Ratio with Erythrocytes/Plasma” value in series [1] is reported as 2.

As to `C[C@]12CC[C@@H]3c4ccc(OS(N)(=O)=O)cc4CC[C@H]3[C@@H]1CC[C@@H]2O` [Estradiol-3-sulfamate, reference compound], the “RBA in Erythrocytes” value in the series on erythrocytes stood at 100. Further, in series [1], the “Distribution Ratio with Erythrocytes/Plasma” value is 48.

`C[C@@H]1CC2=CC(=O)CC[C@@H]2[C@H]2CC[C@]3(C)[C@@H](O)CC[C@H]3[C@@H]21` [MENT, 7α-methyl-19-nortestosterone, reference compound]: in series [4], the “growth of the accessory sex glands” value is listed as “only marginal effects” and the “reduction of HDL” value is reported as “even more active than the substances according to the invention”. In addition, in series [2], the “effects on the accessory sex glands (weights of seminal vesicles and prostates)” value is “A corresponding effect even in the case of extremely high dosage did not occur”; the “reduction of HDL” value is listed as “even more effective than the substances according to the invention”. For the same compound, in series [5] (oral, 7 days), the “growth of the accessory sex glands” value is “only marginal effects” and the “reduction of HDL” value is “even more active than the substances according to the invention”.
